Data reported in PubChem BioAssay (NCI).
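Cultured in 96-well plates, cells were exposed to test compound for 48 hours across five concentrations. The concentration for 50% growth inhibition is given as GI50. At the TGI there is no net growth.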

Columns and labels:
Assay in all cases: NCI anticancer screen, dose series, 48 h
[1] = system: 786-0 renal
[2] = system: A549 NSCLC
[3] = system: ACHN renal
[4] = system: CCRF-CEM leukemia
[5] = system: COLO 205 colon
[6] = system: DMS 114 small cell lung
[7] = system: DMS 273 small cell lung
[8] = system: EKVX NSCLC
[9] = system: HCT-116 colon
[10] = system: HCT-15 colon
[11] = system: HL-60(TB) leukemia
[12] = system: HOP-62 NSCLC
[13] = system: HT29 colon
[14] = system: IGROV1 ovarian
[15] = system: K-562 leukemia
[16] = system: KM12 colon
[17] = system: KM20L2 colon
[18] = system: LOX IMVI melanoma
[19] = system: LXFL 529 NSCLC
[20] = system: M14 melanoma
[21] = system: M19-MEL melanoma
[22] = system: MALME-3M melanoma
[23] = system: MOLT-4 leukemia
[24] = system: NCI-H226 lung
[25] = system: NCI-H23 lung
[26] = system: NCI-H460 lung
[27] = system: NCI-H522 lung
[28] = system: OVCAR-3 ovarian
[29] = system: OVCAR-4 ovarian
[30] = system: OVCAR-5 ovarian
[31] = system: OVCAR-8 ovarian
[32] = system: RPMI-8226 leukemia
[33] = system: RXF 393 renal
[34] = system: SF-268 CNS
[35] = system: SF-295 CNS
[36] = system: SF-539 CNS
[37] = system: SK-MEL-2 melanoma
[38] = system: SK-MEL-28 melanoma
[39] = system: SK-MEL-5 melanoma
[40] = system: SN12C renal
[41] = system: SNB-19 CNS
[42] = system: SNB-75 CNS
[43] = system: SNB-78 CNS
[44] = system: SR leukemia
[45] = system: SW-620 colon
[46] = system: TK-10 renal
[47] = system: U251 CNS
[48] = system: UACC-62 melanoma
[49] = system: UO-31 renal
[50] = system: XF 498 CNS
[51] = system: A498 renal
[52] = system: BT-549 breast
[53] = system: CAKI-1 renal
[54] = system: DU-145 prostate
[55] = system: HCC-2998 colon
[56] = system: HOP-92 NSCLC
[57] = system: HS 578T breast
[58] = system: MCF7 breast
[59] = system: MDA-MB-231 breast
[60] = system: MDA-MB-435
[61] = system: MDA-N
[62] = system: NCI/ADR-RES ovarian
[63] = system: PC-3 prostate
[64] = system: SK-OV-3 ovarian
[65] = system: T-47D breast
[66] = system: UACC-257 melanoma
[67] = system: DLD-1 colon
[68] = system: HOP-18 NSCLC

## C=CCNC(=S)N1c2ccccc2NC(=O)CC1C (stereo unspecified)
[1]
  TGI: > 100 µM
[2]
  TGI: > 100 µM
[3]
  TGI: > 100 µM
[4]
  TGI: > 100 µM
[5]
  TGI: > 100 µM
[6]
  TGI: > 100 µM
[7]
  TGI: > 100 µM
[8]
  TGI: > 100 µM
[9]
  TGI: > 100 µM
[10]
  TGI: > 100 µM
[11]
  TGI: > 100 µM
[12]
  TGI: > 100 µM
[13]
  TGI: > 100 µM
[14]
  TGI: > 100 µM
[15]
  TGI: > 100 µM
[16]
  TGI: > 100 µM
[17]
  TGI: > 100 µM
[18]
  TGI: > 100 µM
[19]
  TGI: > 100 µM
[20]
  TGI: > 100 µM
[21]
  TGI: > 100 µM
[22]
  TGI: > 100 µM
[23]
  TGI: > 100 µM
[24]
  TGI: > 100 µM
[25]
  TGI: > 100 µM
[26]
  TGI: > 100 µM
[27]
  TGI: > 100 µM
[28]
  TGI: > 100 µM
[29]
  TGI: > 100 µM
[30]
  TGI: > 100 µM
[31]
  TGI: > 100 µM
[32]
  TGI: > 100 µM
[33]
  TGI: > 100 µM
[34]
  TGI: > 100 µM
[35]
  TGI: > 100 µM
[36]
  TGI: > 100 µM
[37]
  TGI: > 100 µM
[38]
  TGI: > 100 µM
[39]
  TGI: > 100 µM
[40]
  TGI: > 100 µM
[41]
  TGI: > 100 µM
[42]
  TGI: > 100 µM
[43]
  TGI: > 100 µM
[44]
  TGI: > 100 µM
[45]
  TGI: > 100 µM
[46]
  TGI: > 100 µM
[47]
  TGI: > 100 µM
[48]
  TGI: > 100 µM
[49]
  TGI: > 100 µM
[50]
  TGI: > 100 µM

## C=C1C[C@@H](O)[C@@H](Br)C(C)(C)[C@]12CCC(C)(Cl)C(Br)C2 (stereo partly specified)
[1]
  TGI: > 78.2 µM
[51]
  TGI: 97.5 µM
[2]
  TGI: > 86 µM
[3]
  TGI: > 87.5 µM
[52]
  TGI: > 100 µM
[53]
  TGI: > 90.4 µM
[4]
  TGI: > 100 µM
[5]
  TGI: > 33.7 µM
[54]
  TGI: > 100 µM
[8]
  TGI: 33.4 µM
[55]
  TGI: 35.3 µM
[9]
  TGI: > 100 µM
[10]
  TGI: > 100 µM
[11]
  TGI: 80.8 µM
[12]
  TGI: > 65.2 µM
[56]
  TGI: > 73.6 µM
[57]
  TGI: > 100 µM
[13]
  TGI: > 100 µM
[14]
  TGI: 46.4 µM
[15]
  TGI: > 100 µM
[16]
  GI50: 0.793 µM
  TGI: 3.8 µM
[18]
  TGI: 49.5 µM
[20]
  TGI: > 100 µM
[22]
  TGI: 59.4 µM
[58]
  TGI: > 79.3 µM
[59]
  TGI: > 85.2 µM
[60]
  TGI: > 71.2 µM
[61]
  TGI: > 59.8 µM
[23]
  TGI: > 100 µM
[24]
  TGI: > 84.8 µM
[25]
  TGI: > 74.9 µM
[26]
  TGI: > 84.5 µM
[27]
  TGI: 44.1 µM
[62]
  TGI: 98 µM
[28]
  TGI: 37.4 µM
[29]
  TGI: > 100 µM
[30]
  TGI: 19.8 µM
[31]
  TGI: > 100 µM
[63]
  TGI: 8.17 µM
[32]
  TGI: > 100 µM
[33]
  TGI: > 76.1 µM
[34]
  TGI: > 77.4 µM
[35]
  TGI: > 85.3 µM
[36]
  TGI: 32.3 µM
[37]
  TGI: 32.3 µM
[38]
  TGI: > 100 µM
[39]
  TGI: 23.4 µM
[64]
  TGI: > 100 µM
[40]
  TGI: 36 µM
[41]
  TGI: > 31.6 µM
[42]
  TGI: > 71.5 µM
[44]
  TGI: > 100 µM
[45]
  TGI: > 100 µM
[65]
  TGI: > 100 µM
[46]
  TGI: > 100 µM
[47]
  TGI: > 55.9 µM
[66]
  TGI: > 70.7 µM
[48]
  TGI: > 100 µM
[49]
  TGI: > 100 µM

## O=C(/C=C\c1cccc2ccccc12)c1cccs1
[1]
  TGI: 22.5 µM
[51]
  TGI: 35.6 µM
[2]
  TGI: 34.5 µM
[3]
  TGI: 24.1 µM
[53]
  TGI: 22.7 µM
[4]
  TGI: 7.83 µM
[5]
  TGI: 29.3 µM
[67]
  TGI: 16.9 µM
[6]
  TGI: 14 µM
[7]
  TGI: 17.9 µM
[8]
  TGI: 25.9 µM
[55]
  TGI: 30 µM
[9]
  TGI: 10.7 µM
[10]
  TGI: 13.8 µM
[11]
  TGI: 15.6 µM
[68]
  TGI: 21.8 µM
[12]
  TGI: 41.5 µM
[56]
  TGI: 25.8 µM
[13]
  TGI: 17.4 µM
[14]
  TGI: 23.3 µM
[15]
  TGI: 8.79 µM
[16]
  TGI: 17.6 µM
[17]
  TGI: 22.5 µM
[19]
  TGI: 22.9 µM
[20]
  TGI: 28.3 µM
[21]
  TGI: 22.4 µM
[22]
  TGI: 25.1 µM
[23]
  TGI: 35.8 µM
[25]
  TGI: 34.8 µM
[26]
  TGI: 27.7 µM
[27]
  TGI: 8.49 µM
[28]
  TGI: 23.7 µM
[29]
  TGI: 32.9 µM
[30]
  TGI: 32.8 µM
[31]
  TGI: 24.9 µM
[32]
  TGI: 7.68 µM
[34]
  TGI: 26.1 µM
[35]
  TGI: 34.6 µM
[36]
  TGI: 34.9 µM
[38]
  TGI: 28 µM
[39]
  TGI: 26.1 µM
[64]
  TGI: 31.7 µM
[40]
  TGI: 31.5 µM
[41]
  TGI: 25.3 µM
[42]
  TGI: 61.3 µM
[43]
  TGI: 34.5 µM
[45]
  TGI: 2.99 µM
[46]
  TGI: 33.2 µM
[47]
  TGI: 16.5 µM
[66]
  TGI: 26.1 µM
[48]
  TGI: 21.5 µM
[49]
  TGI: 25.6 µM

## N#CC(c1ccccc1)N1CCCN(C(C#N)c2ccccc2)C1c1ccccc1O (stereo unspecified)
[1]
  TGI: > 100 µM
[51]
  TGI: > 100 µM
[2]
  TGI: > 100 µM
[3]
  TGI: > 100 µM
[52]
  TGI: > 100 µM
[53]
  TGI: > 100 µM
[4]
  TGI: > 100 µM
[5]
  TGI: > 100 µM
[54]
  TGI: > 100 µM
[8]
  TGI: > 100 µM
[55]
  TGI: > 100 µM
[9]
  TGI: > 100 µM
[10]
  TGI: > 100 µM
[11]
  TGI: > 100 µM
[12]
  TGI: > 100 µM
[56]
  TGI: > 100 µM
[57]
  TGI: > 100 µM
[13]
  TGI: > 100 µM
[14]
  TGI: > 100 µM
[15]
  TGI: > 100 µM
[16]
  TGI: > 100 µM
[18]
  TGI: > 100 µM
[20]
  TGI: > 100 µM
[22]
  TGI: > 100 µM
[58]
  TGI: > 100 µM
[59]
  TGI: > 100 µM
[60]
  TGI: > 100 µM
[61]
  TGI: > 100 µM
[23]
  TGI: > 100 µM
[24]
  TGI: > 100 µM
[25]
  TGI: > 100 µM
[26]
  TGI: > 100 µM
[27]
  TGI: > 100 µM
[62]
  TGI: > 100 µM
[28]
  TGI: > 100 µM
[29]
  TGI: > 100 µM
[30]
  TGI: > 100 µM
[31]
  TGI: > 100 µM
[63]
  TGI: > 100 µM
[32]
  TGI: > 100 µM
[33]
  TGI: > 100 µM
[34]
  TGI: > 100 µM
[35]
  TGI: > 100 µM
[36]
  TGI: > 100 µM
[37]
  TGI: > 100 µM
[38]
  TGI: > 100 µM
[39]
  TGI: > 100 µM
[64]
  TGI: > 100 µM
[40]
  TGI: > 100 µM
[41]
  TGI: > 100 µM
[42]
  TGI: > 100 µM
[44]
  TGI: > 100 µM
[45]
  TGI: > 100 µM
[65]
  TGI: > 100 µM
[46]
  TGI: > 100 µM
[47]
  TGI: > 100 µM
[66]
  TGI: > 100 µM
[48]
  TGI: > 100 µM
[49]
  TGI: > 100 µM
